Results on four compounds are retold here after patent publication US20130143891A1, “Methods for Treating Methotrexate-Resistant Disorders with 10-Propargyl-10-Deazaaminopterin” (ALLOS THERAPEUTICS, INC., priority 2010, published 2013).

Like-named read-outs stand apart in the source and are kept apart here.

Series [1] has as its system DU145 prostate cancer cell line. Put plainly: MTT cell cytotoxicity assay, DU145. It counts as cell-based, human. The settings on record: naïve/parental, 72 h exposure, read-out: Cytotoxicity (IC50s). The protocol:
(§1) A panel of colon (HT29, HCT116, COLO205, HCC2998), breast (MCF7, MDA-MB-435), lung (HOP62, HOP92), ovarian (OVCAR3, IGROV1), prostate (DU145, PC3), and head and neck (SCC61, HEP2, SQ20B) human cancer cell lines was purchased from the ATCC (Rockville, Md.) and National Cancer Institute collections. […] All the data generated was the result of three separate experiments performed in duplicate. Cell viability was determined using the MTT assay, which was carried out as described previously (Hansen, 1989). Briefly, cells were seeded in 96-well plates at a density of 2×10^3 cells well^−1. […] The monolayer was suspended in 0.1 ml of DMSO and the absorbance at 560 nm was measured using a microplate reader. Positive and negative controls included wells with untreated cells or medium containing MTT with no cells, respectively. The conversion of yellow water-soluble tetrazolium MTT into purple insoluble formazan is catalyzed by mitochondrial dehydrogenases and is used to estimate the number of viable cells.

Series [2] relates to IGROV1 ovarian cancer cell line. Put plainly: MTT cell cytotoxicity assay, IGROV1. Format: cell-based, human. The settings on record: 72 h exposure, read-out: Cytotoxicity (IC50s). Here is the method:
as §1

Series [3] concerns DU-MTX cells. The series is described as follows: Cytotoxicity in methotrexate-adapted DU145 cells. It counts as cell-based, human. The protocol: (§2) All the data generated was the result of three separate experiments performed in duplicate. Cell viability was determined using the MTT assay, which was carried out as described previously (Hansen, 1989). Briefly, cells were seeded in 96-well plates at a density of 2×10^3 cells well^−1. Cells were incubated for 120 hours and then 0.4 mg ml^−1 of MTT dye (3-[4,5-dimethylthiazol-2-yl]-2,5-diphenyltetrazolium bromide was added for 4 hours at 37° C. The monolayer was suspended in 0.1 ml of DMSO and the absorbance at 560 nm was measured using a microplate reader. Positive and negative controls included wells with untreated cells or medium containing MTT with no cells, respectively. The conversion of yellow water-soluble tetrazolium MTT into purple insoluble formazan is catalyzed by mitochondrial dehydrogenases and is used to estimate the number of viable cells. The control value corresponding to untreated cells was taken as 100% and the viability of treated samples was expressed as a percentage of the control. IC50 values were determined as concentrations that reduced cell viability by 50%.
(§3) For single agent studies, cells were seeded and allowed to settle for 24 hours prior to treatment with increasing concentrations of 10-propargyl-10-deazaminopterin for 72 h. After incubation, the cells were allowed to recover in compound-free medium for 48 h, prior to determination of growth inhibition using the MTT assay.
To compare the mechanisms of 10-propargyl-10-deazaminopterin and methotrexate resistance, the cell lines DU-MTX and HEP-MTX were developed from parental DU145 and HEP2 cells by exposure to stepwise increasing concentrations of methotrexate.

Series [4] has as its system DHFR. Put plainly: Western blot of DHFR protein expression. Format: cell-based, human. The protocol: Cells were lysed in buffer containing 50 mM HEPES (pH 7.6), 150 mM NaCl, 1% Triton X-100, 2 mM sodium vanadate, 100 mM NaF, and 0.4 mg·ml^−1 phenylmethylsulfonyl fluoride. Equal amounts of protein (20-50 μg/lane) were subjected to SDS-PAGE and transferred to nitrocellulose membranes. Membranes were probed with anti-cleaved PARP, anti-cleaved caspase 3, anti-caspase 9 (Cell Signaling, Saint Quentin Yvelines, France), anti-DHFR (Abcam, France), anti-β-actin (Sigma Aldrich, Saint-Quentin Fallavier, France) specific primary antibodies followed by peroxidase-linked secondary antibodies and visualization by chemiluminescence.

The test system of series [5] is COLO205 colon cancer cell line. Put plainly: MTT cell cytotoxicity assay, COLO205. It counts as cell-based, human. The settings on record: 72 h exposure, read-out: Cytotoxicity (IC50s). Here is the method: as §1
Series [6] concerns 15 human solid tumor cell lines. The series is described as follows: Cytotoxicity across panel of 15 human solid tumor cell lines. Format: cell-based. Here is the method:
A panel of colon (HT29, HCT116, COLO205, HCC2998), breast (MCF7, MDA-MB-435), lung (HOP62, HOP92), ovarian (OVCAR3, IGROV1), prostate (DU145, PC3), and head and neck (SCC61, HEP2, SQ20B) human cancer cell lines was purchased from the ATCC (Rockville, Md.) and National Cancer Institute collections. Cells were grown as monolayers in RPMI medium supplemented with 10% fetal calf serum, 2 mM glutamine, 100 units ml^−1 penicillin and […] streptomycin.
as §2, §3

Series [7] has as its system DU-PDX cells. The series is described as follows: Cytotoxicity in 10-propargyl-10-deazaminopterin-adapted DU145 cells. Format: cell-based, human. The protocol:
as §2, §3
(§4) To characterize the predictive factors of 10-propargyl-10-deazaminopterin antiproliferative effects, the cell lines DU-PDX and HEP-PDX were developed from parental DU145 and HEP2 cells, respectively, by exposure to stepwise increasing concentrations of 10-propargyl-10-deazaminopterin over a period of 6 months.

The subject of series [8] is HEP-PDX cells. The series is described as follows: Cytotoxicity in 10-propargyl-10-deazaminopterin-adapted HEP2 cells. Format: cell-based, human. The protocol:
as §2, §3, §4

In series [9] the test system is HEP2 head and neck cancer cell line. Put plainly: MTT cell cytotoxicity assay, HEP2. Format: cell-based, human. The settings on record: 72 h exposure, read-out: Cytotoxicity (IC50s). The protocol: as §1
The subject of series [10] is HOP62 NSCLC cell line. The series is described as follows: MTT cell cytotoxicity assay, HOP62. Format: cell-based, human. Particulars: 72 h exposure, read-out: Cytotoxicity (IC50s). Here is the method: as §1
In series [11] the test system is OVCAR3 ovarian cancer cell line. The series is described as follows: MTT cell cytotoxicity assay, OVCAR3. Format: cell-based, human. The settings on record: 72 h exposure, read-out: Cytotoxicity (IC50s). The protocol: as §1
Series [12] has as its system HCC2998 colon cancer cell line. Put plainly: MTT cell cytotoxicity assay, HCC2998. It counts as cell-based, human. The settings on record: 72 h exposure, read-out: Cytotoxicity (IC50s). Here is the method: as §1
Series [13] relates to PC3 prostate cancer cell line. Put plainly: MTT cell cytotoxicity assay, PC3. It counts as cell-based, human. The settings on record: 72 h exposure, read-out: Cytotoxicity (IC50s). The protocol:
as §1

Series [14] relates to SCC61 head and neck cancer cell line. Put plainly: MTT cell cytotoxicity assay, SCC61. It counts as cell-based, human. The settings on record: 72 h exposure, read-out: Cytotoxicity (IC50s). The protocol: as §1
Series [15] deals with MCF7 breast cancer cell line. Put plainly: MTT cell cytotoxicity assay, MCF7. It counts as cell-based, human. The settings on record: 72 h exposure, read-out: Cytotoxicity (IC50s). The protocol:
as §1

The subject of series [16] is MDA-MB-435 melanoma cell line. Put plainly: MTT cell cytotoxicity assay, MDA-MB-435. It counts as cell-based, human. The settings on record: MDA-MB-435 (melanoma; MDA435 in table), 72 h exposure, read-out: Cytotoxicity (IC50s). The protocol:
as §1

The test system of series [17] is HOP92 NSCLC cell line. Put plainly: MTT cell cytotoxicity assay, HOP92. It counts as cell-based, human. Particulars: 72 h exposure, read-out: Cytotoxicity (IC50s). Here is the method: as §1
Series [18] has as its system SQ20B head and neck cancer cell line. The series is described as follows: MTT cell cytotoxicity assay, SQ20B. Format: cell-based, human. Particulars: 72 h exposure, read-out: Cytotoxicity (IC50s). The protocol: as §1
Series [19] has as its system HCT116 colon cancer cell line. Put plainly: MTT cell cytotoxicity assay, HCT116. The settings on record: 72 h exposure, read-out: Cytotoxicity (IC50s). Format: cell-based, human. Here is the method: as §1
Series [20] deals with HT29 colon cancer cell line. The series is described as follows: MTT cell cytotoxicity assay, HT29. Format: cell-based, human. The settings on record: 72 h exposure, read-out: Cytotoxicity (IC50s). Here is the method: as §1

Consider `C#CCC(Cc1cnc2nc(N)nc(N)c2n1)c1ccc(C(=O)N[C@@H](CCC(=O)O)C(=O)O)cc1` (mixture of isomers) [Pralatrexate, (2S)-2-[[4-[(1RS)-1-[(2,4-diaminopteridin-6-yl)methyl]but-3-ynyl]benzoyl]amino]pentanedioic acid], for which the IC50 was 0.01 µM in series [1] (listed as 10-propargyl-10-deazaminopterin); 0.08 µM in series [2]; less than 0.1 µM in series [2] (Homo sapiens, IGROV-1, 72 h); 0.02 µM in series [3] (Homo sapiens, DU-145, DU-MTX cells (FIG. 3), read-out: IC50 for the methotrexate adapted DU-145 cell lines); 9 µM in series [5]; not below 9 µM in series [5] (Homo sapiens, COLO 205, 72 h). Moreover, the IC50 in series [6] (6 of the 15 human cancer cell lines, read-out: IC50 in the 6 relatively resistant of 15 cell lines) was more than 9 µM; in series [6] (nine of the 15 human cancer cell lines, read-out: IC50 in the nine sensitive of 15 cell lines), less than 0.1 µM; in series [9], 0.05 µM; in series [9] (Homo sapiens, HEp-2, 72 h), less than 0.1 µM. Also, the “IC50 lower than that of methotrexate” value in series [3] (DU-MTX cells) is reported as “approximately 10 fold”. Moreover, in series [4] (6 months exposure, HEP-PDX cells), the “DHFR protein expression after prolonged exposure” value is reported as “not after prolonged (6 months) exposure”. Also, in series [4] (24 hour exposure (FIG. 6)), the “DHFR protein expression after short exposure” value was “slightly increased”. Further, the “IC50s on average lower than those observed for methotrexate” value in series [6] (average over the panel) is listed as approximately 10 fold. Moreover, the “less sensitive (resistant) than parental cells” value in series [7] (DU-PDX versus parental DU145) and in series [8] (HEP-PDX versus parental HEP2) was “more than 200 fold” in each case. Also, the “change in cytotoxicity with and without verapamil and cyclosporine A” value in [7] (DU-PDX, 30 μM verapamil and 3 μM cyclosporin A concomitantly for 72 hours) is recorded as “No changes were observed”; in series [8] (HEP-PDX, 30 μM verapamil and 3 μM cyclosporin A concomitantly for 72 hours) it was “No changes were observed”.
Regarding `O=c1[nH]cc(F)c(=O)[nH]1` [5-FU, 5-fluorouracil], the IC50 is 7 µM in series [1] (Homo sapiens, DU-145, 72 h); 8 µM in [2] (Homo sapiens, IGROV-1, 72 h); 78 µM in series [10] (Homo sapiens, HOP-62, 72 h); 31 µM in [11] (Homo sapiens, OVCAR-3, 72 h); 10 µM in series [12] (Homo sapiens, HCC 2998, 72 h); 0.8 µM in series [5] (Homo sapiens, COLO 205, 72 h). Also, the IC50 in series [13] (Homo sapiens, 72 h) was found to be 1.5 µM; in series [14] (Homo sapiens, 72 h) it was 1.2 µM; in series [15] (Homo sapiens, MCF7, 72 h) it was 1.3 µM; in series [16] (Homo sapiens, MDA-MB-435, 72 h), 5 µM; in series [17] (Homo sapiens, HOP-92, 72 h), 18 µM; in [18] (Homo sapiens, SQ20B, 72 h), 10 µM. Further, the IC50 in series [9] (Homo sapiens, HEp-2, 72 h) came out at 86 µM; in series [19] (Homo sapiens, HCT-116, 72 h), 10 µM; in [20] (Homo sapiens, HT-29, 72 h), 3 µM. Besides, the “cross-resistance: cytotoxicity in DU-PDX compared with parental DU145” value in series [7] (DU-PDX cells, 72 h exposure for pemetrexed and 5-FU) is given as “No significant difference”. Besides, the “cross-resistance: cytotoxicity in HEP-PDX compared with parental HEP2” value in series [8] (HEP-PDX cells, 72 h exposure for pemetrexed and 5-FU) is given as “No significant difference”.
Consider `C[C@H]1O[C@@H](n2cc(F)c(=O)[nH]c2=O)[C@H](O)[C@@H]1O` [5′-DFUR], for which the IC50 in [1] was 28 µM; in series [2], 29 µM; in [10], 380 µM; in [11], 230 µM; in series [12], 34 µM; in series [5], 3.9 µM. The IC50 in [13] came to 25 µM; in series [14], 3.2 µM; in [15], 7.8 µM; in [16] it was 33 µM; in series [17], 135 µM; in [18], 27 µM. In addition, the figures for the IC50 in [9], in [19] and in [20] were 250 µM, 45 µM and 16 µM, respectively.
Turning to `Nc1nc2[nH]cc(CCc3ccc(C(=O)N[C@@H](CCC(=O)O)C(=O)O)cc3)c2c(=O)[nH]1` [Pemetrexed, pemetrexed], the IC50 in series [1] (Homo sapiens, DU-145, 72 h) came out at 0.048 µM; in [2] (Homo sapiens, IGROV-1, 72 h), 300 µM; in series [10] (Homo sapiens, HOP-62, 72 h), 0.029 µM; in series [11] (Homo sapiens, OVCAR-3, 72 h) it was 0.025 µM; in [12] (Homo sapiens, HCC 2998, 72 h), 1.5 µM; in [5] (Homo sapiens, COLO 205, 72 h), 0.024 µM. Also, the IC50 in series [13] (Homo sapiens, 72 h) was 2.7 µM; in series [14] (Homo sapiens, 72 h), 0.015 µM; in [15] (Homo sapiens, MCF7, 72 h), 0.022 µM; in [16] (Homo sapiens, MDA-MB-435, 72 h), 300 µM; in series [17] (Homo sapiens, HOP-92, 72 h) it was 0.02 µM; in [18] (Homo sapiens, SQ20B, 72 h), 0.025 µM. In addition, the IC50 in series [9] (Homo sapiens, HEp-2, 72 h) is 0.1 µM; in [19] (Homo sapiens, HCT-116, 72 h), 350 µM; in series [20] (Homo sapiens, HT-29, 72 h), 0.023 µM. Also, the “cross-resistance: cytotoxicity in DU-PDX compared with parental DU145” value in series [7] is “only slightly less cytotoxic”. The “cross-resistance: cytotoxicity in HEP-PDX compared with parental HEP2” value in series [8] is reported as “only slightly less cytotoxic”.
